Data from ChEMBL document CHEMBL5252515, “Discovery of 6-Amino-2-{[(1S)-1-methylbutyl]oxy}-9-[5-(1-piperidinyl)pentyl]-7,9-dihydro-8H-purin-8-one (GSK2245035), a Highly Potent and Selective Intranasal Toll-Like Receptor 7 Agonist for the Treatment of Asthma” (J Med Chem, 2016).
Active and inactive are the calls of the source. The rule behind the calls is not given here.

Assays:
[1] = molecular target: T1, Toll-like receptor 7 (Macaca fascicularis) (UniProt B3Y652); assay: In vivo target occupancy at TLR7 in cynomolgus monkey assessed as fold increase in CCL8 mRNA expression in nasal scrape at 30 ng/kg administered intranasally incubated for 24 hrs by TaqMan analysis (reference value: 1); type: functional
T1 sequence (whole entry): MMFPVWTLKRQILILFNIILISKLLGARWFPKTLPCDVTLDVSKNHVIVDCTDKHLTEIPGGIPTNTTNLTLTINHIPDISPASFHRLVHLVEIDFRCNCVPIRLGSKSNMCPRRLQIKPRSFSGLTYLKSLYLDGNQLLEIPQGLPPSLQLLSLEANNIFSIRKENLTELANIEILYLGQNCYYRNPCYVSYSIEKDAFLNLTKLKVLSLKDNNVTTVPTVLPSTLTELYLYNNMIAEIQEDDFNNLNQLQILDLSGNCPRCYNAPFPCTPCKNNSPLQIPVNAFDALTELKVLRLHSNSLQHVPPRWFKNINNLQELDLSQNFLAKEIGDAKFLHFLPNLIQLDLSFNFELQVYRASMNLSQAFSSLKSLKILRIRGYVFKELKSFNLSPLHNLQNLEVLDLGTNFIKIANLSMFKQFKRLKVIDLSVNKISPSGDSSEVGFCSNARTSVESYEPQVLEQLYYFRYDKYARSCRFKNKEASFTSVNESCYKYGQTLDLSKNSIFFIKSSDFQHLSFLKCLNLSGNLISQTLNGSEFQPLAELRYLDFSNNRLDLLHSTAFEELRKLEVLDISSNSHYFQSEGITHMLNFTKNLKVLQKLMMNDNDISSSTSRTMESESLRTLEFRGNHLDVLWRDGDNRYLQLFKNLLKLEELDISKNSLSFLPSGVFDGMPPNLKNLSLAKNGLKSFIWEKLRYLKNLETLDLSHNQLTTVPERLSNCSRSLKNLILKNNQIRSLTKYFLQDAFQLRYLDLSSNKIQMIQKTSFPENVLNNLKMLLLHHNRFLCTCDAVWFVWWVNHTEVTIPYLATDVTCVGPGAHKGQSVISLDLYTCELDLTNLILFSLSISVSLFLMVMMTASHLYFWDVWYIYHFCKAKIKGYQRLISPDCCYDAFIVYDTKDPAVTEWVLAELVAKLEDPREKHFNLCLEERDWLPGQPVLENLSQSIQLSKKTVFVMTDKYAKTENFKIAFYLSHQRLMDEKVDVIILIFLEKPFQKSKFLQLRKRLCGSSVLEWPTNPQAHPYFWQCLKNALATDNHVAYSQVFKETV

[2] = Ocular toxicity in monkey at 10 ug/ml; design: species or system Macaca mulatta; settings: rhesus monkey, in vivo; dose 10 µg/ml
Toll-like receptor 7 [3] = molecular target: T2, Toll-like receptor 7 (Homo sapiens, UniProt Q9NYK1); assay: Agonist activity at TLR7 in human whole blood assessed as induction of IFN-gamma production after 20 hrs by electrochemiluminescence assay; type: tissue-based
T2 sequence (Q9NYK1 whole entry): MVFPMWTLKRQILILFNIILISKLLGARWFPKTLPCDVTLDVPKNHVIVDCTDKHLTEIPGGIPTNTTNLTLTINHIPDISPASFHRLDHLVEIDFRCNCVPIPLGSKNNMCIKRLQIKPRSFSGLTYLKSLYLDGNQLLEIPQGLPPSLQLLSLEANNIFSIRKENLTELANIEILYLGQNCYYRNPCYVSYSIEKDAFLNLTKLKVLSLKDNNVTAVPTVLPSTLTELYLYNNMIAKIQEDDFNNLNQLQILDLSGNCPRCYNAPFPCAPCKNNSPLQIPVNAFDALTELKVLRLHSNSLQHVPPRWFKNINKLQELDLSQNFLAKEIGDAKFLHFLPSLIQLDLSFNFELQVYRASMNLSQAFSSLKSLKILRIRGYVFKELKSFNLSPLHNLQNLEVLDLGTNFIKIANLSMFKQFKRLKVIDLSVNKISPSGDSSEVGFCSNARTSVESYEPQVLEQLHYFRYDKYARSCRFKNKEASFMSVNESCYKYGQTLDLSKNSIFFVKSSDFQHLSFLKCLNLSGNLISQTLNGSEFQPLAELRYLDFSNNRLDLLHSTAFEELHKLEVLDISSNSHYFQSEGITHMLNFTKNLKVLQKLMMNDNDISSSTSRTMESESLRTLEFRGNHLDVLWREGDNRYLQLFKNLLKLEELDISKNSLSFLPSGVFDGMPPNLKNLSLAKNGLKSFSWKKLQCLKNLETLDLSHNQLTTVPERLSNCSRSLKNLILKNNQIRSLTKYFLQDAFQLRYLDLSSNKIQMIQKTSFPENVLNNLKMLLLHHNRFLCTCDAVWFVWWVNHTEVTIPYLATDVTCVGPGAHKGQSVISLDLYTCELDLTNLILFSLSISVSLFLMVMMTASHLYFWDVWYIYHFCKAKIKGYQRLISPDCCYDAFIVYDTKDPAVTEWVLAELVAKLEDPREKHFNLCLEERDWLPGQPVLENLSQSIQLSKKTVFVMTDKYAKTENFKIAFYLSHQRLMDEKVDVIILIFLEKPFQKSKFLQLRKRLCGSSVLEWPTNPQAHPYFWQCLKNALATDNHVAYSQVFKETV

[4] = molecular target: T1, Toll-like receptor 7 (Macaca fascicularis); assay: In vivo target occupancy at TLR7 in cynomolgus monkey assessed as fold increase in IFIT2 mRNA expression in nasal scrape at 3 ng/kg administered intranasally incubated for 24 hrs by TaqMan analysis (reference value: 2.1); type: functional
Toll-like receptor 7 [5] = molecular target: T3, Toll-like receptor 7 (Macaca fascicularis, UniProt B3Y652); assay: Agonist activity at TLR7 in cynomolgus monkey whole blood assessed as induction of TNFalpha production; type: tissue-based
T3 sequence (B3Y652 whole entry): T1 sequence (whole entry)

[6] = molecular target: T1, Toll-like receptor 7 (Macaca fascicularis); assay: In vivo target occupancy at TLR7 in cynomolgus monkey assessed as fold increase in OAS2 mRNA expression in nasal scrape at 30 ng/kg administered intranasally incubated for 24 hrs by TaqMan analysis (reference value: 1); type: functional
PBMC [7] = assay: Immunomodulatory activity in human PBMC assessed as reduction in house dust mite induced IL-5 level after 6 days; type: functional, cell-based; settings: dose 0.01-10000 nM, time 6.0 day
Toll-like receptor 7 [8] = molecular target: T3, Toll-like receptor 7; assay: Agonist activity at TLR7 in cynomolgus monkey whole blood assessed as induction of IFNalpha production; type: tissue-based
[9] = molecular target: T1, Toll-like receptor 7 (Macaca fascicularis); assay: In vivo target occupancy at TLR7 in cynomolgus monkey assessed as fold increase in IFIT2 mRNA expression in nasal scrape at 30 ng/kg administered intranasally incubated for 24 hrs by TaqMan analysis (reference value: 2.1); type: functional
[10] = molecular target: T1, Toll-like receptor 7 (Macaca fascicularis); assay: In vivo target occupancy at TLR7 in cynomolgus monkey assessed as fold increase in CXCL10 mRNA expression in nasal scrape at 3 ng/kg administered intranasally incubated for 24 hrs by TaqMan analysis (reference value: 1.6); type: functional
[11] = Tmax in rat after intranasal administration; type: ADME; settings: in vivo, inhaled or intranasal
PBMC [12] = assay: Immunomodulatory activity in human PBMC assessed as IFNalpha production incubated for 6 days in presence of allergen house dust mite; type: functional, cell-based; settings: time 6.0 day
PBMC [13] = assay: Immunomodulatory activity in human PBMC assessed as IL-10 production incubated for 6 days in presence of allergen house dust mite; type: functional, cell-based; settings: time 6.0 day
Toll-like receptor 7 [14] = molecular target: T2, Toll-like receptor 7; assay: Agonist activity at TLR7 in human whole blood assessed as induction of TNFalpha production after 20 hrs by electrochemiluminescence assay; type: tissue-based

fold change (FC) [1]: 19300
EC50 (Toll-like receptor 7 [3]): 1.26 µM
fold change (FC) [4]: 108
EC50 (Toll-like receptor 7 [5]): 15.8 µM
fold change (FC) [6]: 180
EC50 (Toll-like receptor 7 [8]): 0.0794 µM
fold change (FC) [9]: 124
fold change (FC) [10]: 230
Tmax [11]: ≤ 5 min
EC50 (Toll-like receptor 7 [14]): 10 µM
Structure (SMILES): CCC[C@H](C)Oc1nc(N)c2[nH]c(=O)n(CCCCCN3CCCCC3)c2n1 [GSK-2245035]
Activity [2]: Non-Toxic
Activity (PBMC [7]): Dose-Dependent Effect
Activity (PBMC [12]): Active
Activity (PBMC [13]): Active
